Test: xn = mol fraction of the nth substance listed
Conditions: 101.3 kPa

CC1COC(=O)O1 (configuration not stated) + FC(S(=O)(=O)[N-]S(=O)(=O)C(F)(F)F)(F)F.C(CCC)N1C(=[N+](C=C1)C)C
x2 = 0
Conditions	viscosity [mPa·s]
298.15 K	2.476
303.15 K	2.246
308.15 K	2.049
313.15 K	1.879
318.15 K	1.73
323.15 K	1.6
328.15 K	1.486
333.15 K	1.385
338.15 K	1.294
348.15 K	1.14

CCCCn1cc[n+](C)c1C.O=S(=O)([N-]S(=O)(=O)C(F)(F)F)C(F)(F)F + CC1COC(=O)O1
viscosity [mPa·s]
Conditions	x1 = 0.0902	x1 = 0.193	x1 = 0.2934	x1 = 0.4039	x1 = 0.4996	x1 = 0.6034	x1 = 0.6989	x1 = 0.8107	x1 = 0.8987	x1 = 1
288.15 K	5.24	9.07	14.94	24.89	37.46	54.7	–	104.9	137	178.8
293.15 K	–	7.79	12.54	20.44	30.16	–	59.4	80.2	103.2	132.9
298.15 K	4.073	6.76	10.65	–	24.69	34.79	47.12	62.7	79.6	101.1
303.15 K	3.637	–	9.15	14.34	–	28.47	38.01	–	62.6	–
308.15 K	3.272	–	7.95	12.21	17.68	23.64	31.16	–	50.2	62.2
313.15 K	–	4.661	6.97	–	15.21	19.88	25.91	33.28	40.89	–
318.15 K	2.693	–	–	9.16	–	17.36	21.81	–	33.77	–
323.15 K	2.463	3.77	5.49	8.04	11.16	15.04	18.72	23.39	28.28	34.04
328.15 K	–	3.421	4.92	7.12	9.65	12.98	16.46	19.94	23.94	28.58
333.15 K	2.088	3.121	4.439	6.34	8.42	11.22	14.32	–	20.47	–
338.15 K	1.933	2.86	–	5.69	–	9.78	12.45	15.42	17.95	20.79
343.15 K	1.796	2.633	3.671	5.13	–	–	10.85	13.47	15.87	18.12
348.15 K	1.675	2.433	3.363	4.658	5.82	7.58	9.51	11.82	13.95	16.01

CC[n+]1ccn(C)c1C.O=S(=O)([N-]S(=O)(=O)C(F)(F)F)C(F)(F)F + CC1COC(=O)O1
viscosity [mPa·s]
Conditions	x1 = 0.1025	x1 = 0.203	x1 = 0.3078	x1 = 0.3994	x1 = 0.5149	x1 = 0.5825	x1 = 0.7004	x1 = 0.8032	x1 = 0.8903	x1 = 1
293.15 K	4.428	6.93	10.56	14.82	23.06	28.58	40.63	54.1	67.4	88.1
298.15 K	3.939	6.07	9.11	12.62	19.36	23.79	33.34	43.9	54.2	69.8
303.15 K	3.529	–	7.94	10.86	16.94	–	27.76	36.2	44.35	56.4
308.15 K	3.181	4.77	6.98	9.45	14.61	17.55	23.4	30.24	36.77	46.1
313.15 K	2.886	4.278	6.18	8.29	12.57	15.29	–	25.57	30.87	38.26
318.15 K	2.631	3.864	5.52	–	–	13.22	17.6	–	26.2	32.15
323.15 K	–	3.506	4.96	6.54	–	11.45	–	18.92	22.48	27.31
328.15 K	2.218	–	4.485	5.86	8.27	9.99	13.53	–	19.46	23.43
333.15 K	2.05	2.932	4.078	–	7.31	8.77	11.81	14.88	17.38	20.28
338.15 K	1.901	2.699	–	4.8	6.49	7.77	10.37	13.07	15.46	17.69
343.15 K	1.769	2.494	3.419	–	5.82	–	9.15	11.54	–	15.62
348.15 K	–	2.312	3.149	4.011	5.23	6.15	–	10.17	12.07	13.94
